Laboratory results: patent US20230093162A1, “FATTY LIVER AND LIVER FIBROSIS EVALUATION SYSTEM BASED ON IMPEDANCE” (KOREA RESEARCH INSTITUTE OF CHEMICAL TECHNOLOGY, priority 2018, published 2023)

System: liver microtissue (MT) of HepaRG hepatocyte strain
Assay: Evaluation of drug induced fatty liver toxicity by impedance of liver microtissue
Assay type: cell-based
Settings: 0.5 M oleic acid
Procedure: 1. Completely differentiated HepaRG hepatocyte strain was obtained at the density of 4,000,000 cells/100 uL.
2. A sample was prepared according to the manual of C253000 provided by Microfit Co. 10 μL of cell suspension #1 was distributed in each well to allow 400,000 HepaRG cells to be placed per well. This step can be performed using a 3D cell preparation method such as a micropattern plate method or a hanging drop method.
3. The cells were cultured for 3 days and the cell culture medium was replaced every day.
4. On day 4, the microtissue (MT) was distributed in a 96-well plate (Ultra-Low attachment surface multiple well plate, Corning) using a 100 uL blue tip.
5a. The liver microtissue (MT) distributed in the Ultra-Low attachment surface multiple well plate was treated with 0.5 M oleic acid, a fatty liver toxicity inducing drug.
6a. A 200 μL pipette was inserted in the end of the first glass tube of Example 1 and the liver microtissue (MT) and the culture medium were sucked through the other end to fill the glass tube with preventing air bubble formation.
7a. The glass tube was inserted between the two Y tubes (third tube and fourth tube) of Example 1 and Example 4 with preventing air bubble formation.
8a. Air bubbles in the liquid were removed and let the wire of each Y tube shared the same liquid.
9a. The working electrode/sensing electrode of the potentiostat or impedance analyzer was connected to the gold (Au) wire protruding out of the Y tube (iii tube) and the reference/counter electrode was connected to the platinum (Pt) wire protruding out of the other Y tube (III tube).
10a. The liver microtissue (MT) was placed at the end of the plastic tip by using a 1 mL syringe.
11a. The pressure was set at −5 mPa by using the syringe pump and the liver microtissue (MT) was fixed at the plastic tip by the pressure difference.
12a. Alternating current impedance was measured at a fixed voltage of 50 mV from 10^6 Hz to 10^−2 Hz to measure the impedance of the liver microtissue (MT) and the PBS buffer.
13a. The pressure of the syringe pump was set at 10 mPa to allow the liver microtissue (MT) to be removed from the plastic tip.
14a. Impedance was measured at a fixed voltage of 50 mV from 10^6 Hz to 10^−2 Hz to measure the impedance of the PBS buffer (background).
15a. The interior resistance, the exterior resistance and the capacitance of 12a and the resistance and the capacitance of 14a were measured by using a Fitting program (e.g. Zview).
16a. The interior resistance, the exterior resistance and the capacitance of the liver microtissue (MT) were compared with those of the normal control group. At that time, the normal control group indicates the liver microtissue (MT) not treated with oleic acid which was regarded as a fatty liver toxicity inducing drug.
17a. […]

## CCCCCCCC/C=C\CCCCCCCC(=O)O [oleic acid]
  fat formation in the liver microtissue (MT): fat was formed
Compared with the normal control group, FIG. 2a, 2b, 3
  impedance of the liver microtissue (MT): increased
Compared with the normal control group, according to the pressure changes, FIG. 3
  resistance of the liver microtissue (MT): increased
Fitted with Zview, compared with normal control
  internal resistance of the liver microtissue (MT): increased
